Here are results for three compounds from US20180110799A1, “Compositions and Methods for the Inhibition of Chondrogenesis” (The Children's Hospital of Philadelphia, priority 2014, published 2018).

The test system of data set [1] is ADTC5 chondrogenic cell line. Particulars: Brown et al. 2008; cited from earlier work.
The next data set concerns heparanase mRNA. As to the kind of experiment: Semi-quantitative RT-PCR of heparanase mRNA in micromass cultures. The format is cell-based, mouse. The protocol: (§1) Micromass cultures were prepared from the mesenchymal cells of E11.5 mouse embryo limb buds (Ahrens et al. (1979) Dev. Biol., 69:436-50). Dissociated cells were suspended at a concentration of 5×10^6 cells/ml in DMEM containing 3% fetal bovine serum and antibiotics. Micromass cultures were initiated by spotting 20 μl of the cell suspensions (1.5×10^5 cells) onto the surface of 24-well tissue culture dishes. After a 90-minute incubation at 37° C. in a humidified CO2 incubator to allow for cell attachment, the cultures were supplied with 0.25 ml of medium. After 24 hours, medium supplemented with the indicated concentrations of Surfen (bis-2-methyl-4-aminoquinolyl-6-carbamide), bacterial heparitinase III (Sigma), recombinant human BMP2 (R&D Systems), recombinant human heparanase, or roneparstat (Sigma-Tau Research S.A.). Fresh reagents (drug and/or protein) were given with medium change every other day. Equivalent amounts of vehicle were added to control cultures. Cultures were stained with Alcian blue (pH 1.0) after four and six days to monitor chondrogenic cell differentiation by standard methods. […]
(§2) Total RNA was extracted from cells by the guanidine phenol method using TRIzol® reagent (Invitrogen) according to the manufacturer's protocols and measured using a NanoDrop. […] Band intensities were quantified by computer-assisted image analysis (ImageQuant™ TL, GE Healthcare).

Data set [2] relates to endogenous heparanase. The experiment in a line: Immunoblot of endogenous heparanase protein in micromass cultures. The format is cell-based, mouse. A general note: In western blotting, separated proteins are transferred to a membrane and probed.
Experimental: ATDC5 cells were grown to 100% confluence in 6-well plates and treated with indicated concentrations of Surfen, bis-2-methyl-4-amino-quinolyl-6-carbamide. […] The membranes were re-blotted with antibodies to α-tubulin (Sigma T-5168, 1:2000) for normalization, and band intensities were quantified by computer-assisted image analysis.
Data set [3] relates to endogenous heparanase. As to the kind of experiment: Immunoblot of endogenous heparanase protein in ATDC5 cultures. Type of data set: cell-based, mouse. Particulars: compared with the micromass response. As to the method: ATDC5 cells, derived from mouse embryonal carcinoma, were cultured in 10 cm dishes with a 1:1 mixture of Dulbecco's modified Eagle's medium and Ham's F-12 (Life Technologies) supplemented with 5% fetal bovine serum (ATCC), 10 μg/ml human transferrin (Mediatech), […] sodium selenite (Mediatech), and 20 μg/ml insulin at 37° C. under 5% CO2. Experiments were conducted once cells reached confluence.
ATDC5 cells were grown to 100% confluence in 6-well plates and treated with indicated concentrations of Surfen, bis-2-methyl-4-amino-quinolyl-6-carbamide. Micromass cultures were treated with control vehicle, Surfen, human heparanase, roneparstat, or rhBMP2. At specified time points, total cellular proteins were harvested in SDS-PAGE sample buffer, electrophoresed on 4-15% SDS-Bis-Tris gels (40 μg per lane) and transferred to PVDF membranes (Invitrogen). Membranes were incubated overnight at 4° C. with dilutions of antibodies against phospho-Smad1/5/8 (Cell Signaling Technology 9511, 1:1000), Smad1 (Abcam 63439, 1:500) or human heparanase (Abcam 59787, 1:750). Enhanced chemiluminescent immunoblotting detection system (Pierce) was used to detect the antigen antibody complexes. The membranes were re-blotted with antibodies to α-tubulin (Sigma T-5168, 1:2000) for normalization, and band intensities were quantified by computer-assisted image analysis.

The next data set concerns the target T1, heparanase (Homo sapiens, UniProt Q9Y251).
T1 sequence (Q9Y251 158-543 limits assumed): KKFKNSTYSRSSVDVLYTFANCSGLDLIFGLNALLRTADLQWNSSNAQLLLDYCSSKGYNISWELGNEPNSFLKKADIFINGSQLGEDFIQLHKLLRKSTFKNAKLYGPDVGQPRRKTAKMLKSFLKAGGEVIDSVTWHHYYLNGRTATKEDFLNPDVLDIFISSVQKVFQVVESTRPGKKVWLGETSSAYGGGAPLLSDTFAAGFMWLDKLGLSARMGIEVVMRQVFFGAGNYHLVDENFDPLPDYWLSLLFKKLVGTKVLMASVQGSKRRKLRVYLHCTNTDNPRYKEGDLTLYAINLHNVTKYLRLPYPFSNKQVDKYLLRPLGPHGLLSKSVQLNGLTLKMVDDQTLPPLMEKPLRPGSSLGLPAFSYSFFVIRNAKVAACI
T1 sequence (Q9Y251 36-109 limits assumed): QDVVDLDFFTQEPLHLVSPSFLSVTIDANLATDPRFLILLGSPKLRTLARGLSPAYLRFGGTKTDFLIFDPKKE
Particulars: Ritchie et al. 2011; cited from earlier work.

Data set [4] relates to mesenchymal cells of E11.5 mouse embryo limb buds. The experiment in a line: Cell number, density and whole cellular RNA/DNA content of micromass cultures. Type of data set: cell-based. As to the method:
as §1, with “methods. Micromass analysis was performed using ImageJ.” for “methods.”
(§3) ATDC5 cells were treated at day 0 with human heparanase (400 ng/ml) or a vehicle control. […] DNA isolation was performed using TRIzol® reagent (Invitrogen) according to the manufacturer's protocols and measured using a NanoDrop (ThermoScientific). ATDC5 migration was analyzed via a scratch test. […] The open scratch area was quantified with ImageJ (n=6/treatment group). In micromass cultures, migration was determined by expansion of the micromass itself from day 0 to day 4 or 6. The diameters of untreated micromasses (n=10) were measured and averaged for a baseline size. […]
as §2

For data set [5] the following is noted: literature; cited from earlier work.
In data set [6] the test system is mesenchymal cells of E11.5 mouse embryo limb buds. As to the kind of experiment: Limb bud micromass chondrogenesis, alcian blue staining. Type of data set: cell-based. The note with it: three concentrations up to 20 μg/ml; dose-dependent; day 4 and 6. The protocol: (§4) Micromass cultures were prepared from the mesenchymal cells of E11.5 mouse embryo limb buds (Ahrens et al. (1979) Dev. Biol., 69:436-50). Dissociated cells were suspended at a concentration of 5×10^6 cells/ml in DMEM containing 3% fetal bovine serum and antibiotics. Micromass cultures were initiated by spotting 20 μl of the cell suspensions […] onto the surface of 24-well tissue culture dishes. After a 90-minute incubation at 37° C. in a humidified CO2 incubator to allow for cell attachment, the cultures were supplied with 0.25 ml of medium. After 24 hours, medium supplemented with the indicated concentrations of Surfen (bis-2-methyl-4-aminoquinolyl-6-carbamide), bacterial heparitinase III (Sigma), recombinant human BMP2 (R&D Systems), recombinant human heparanase, or roneparstat (Sigma-Tau Research S.A.). Fresh reagents (drug and/or protein) were given with medium change every other day. Equivalent amounts of vehicle were added to control cultures. Cultures were stained with Alcian blue (pH 1.0) after four and six days to monitor chondrogenic cell differentiation by standard methods. Micromass analysis was performed using ImageJ. Images were made binary under an RGB threshold, and “Particle Analysis” was utilized to measure nodule size, number, and Alcian blue positive area.

Data set [7] has as its system collagen II (ColII), aggrecan (Agg) and Runx2. The experiment in a line: Semi-quantitative RT-PCR of chondrogenic marker genes in micromass cultures. The note with it: micromass day 4 and 6. Type of data set: cell-based, mouse. As to the method: as §4
Total RNA was extracted from cells by the guanidine phenol method using TRIzol® reagent (Invitrogen) according to the manufacturer's protocols and measured using a NanoDrop. One μg of total RNA was reverse transcribed using the SuperScript® III First-Strand Synthesis System (Life Technologies). Band intensities for semiquantitative PCR were normalized to GAPDH and compared while band intensities and cycle numbers were linear. […] Band intensities were quantified by computer-assisted image analysis (ImageQuant™ TL, GE Healthcare).

The conditions of data set [8]: mouse models of diabetic nephropathy; cited from earlier work.
Data set [9] concerns myeloma and sarcoma cells. The note with it: mouse models; Ritchie 2011, Cassinelli 2013; cited from earlier work.
In data set [10] the test system is mesenchymal cells of E11.5 mouse embryo limb buds. As to the kind of experiment: Micromass diameter (proliferation/migration of peripheral cells). The note with it: day 4 and day 6. The format is cell-based. As to the method:
as §1, with “S.A.).” for “S.A.). Fresh reagents (drug and/or protein) were given with medium change every other day. Equivalent amounts of vehicle were added to control cultures. Cultures were stained with Alcian blue (pH 1.0) after four and six days to monitor chondrogenic cell differentiation by standard methods.”
as §3

Regarding PI-88, the “alcian blue staining and cartilage gene expression” value in data set [1] is listed as “only modest reductions”.

Take `Cc1cc(N)c2cc(NC(=O)Nc3ccc4nc(C)cc(N)c4c3)ccc2n1` [Surfen, bis-2-methyl-4-aminoquinolyl-6-carbamide]: in the data set with heparanase mRNA, the “heparanase mRNA amounts” value is reported as “increased”. The “increase of endogenous heparanase protein levels” value with endogenous heparanase [2] (7.5 μM, limb micromass cultures, immunoblot densitometry) is on record as “about 8 fold”. The “endogenous heparanase protein levels in ADTC5 cell cultures” value in the data set on endogenous heparanase [3] was “very similar response”.

In the case of roneparstat, on heparanase, the “inhibitory activity on heparanase” value is “very strong inhibitory activity”. Besides, the “overall cell number and density (hematoxylin counterstaining)” value in [4] (after treatment of micromass cultures) is “had not changed significantly”. The “whole cellular RNA and DNA content, treated vs untreated” value in data set [4] (day 4 and day 6) is on record as “remained similar”. Moreover, in data set [4] (maximal 20 μg/ml dose), the “whole cellular RNA and DNA content” value is given as “minor decreases”. Further, in [5], the anticoagulant properties entry is given as “without anticoagulant properties”. In addition, the “formation of alcian blue-positive chondrogenic nodules” value in data set [6] is listed as “strongly reduced”. Besides, in data set [7], the “expression of Runx2” value is recorded as “dose-dependently inhibited”, the “expression of aggrecan (Agg)” value is given as “dose-dependently inhibited” and the “expression of collagen II (ColII)” value is “dose-dependently inhibited”. The “extent of albuminuria and renal damage” value in data set [8] is “markedly decreases”. The “levels of endogenous heparanase vs untreated control cultures” value with endogenous heparanase [2] (micromass cultures, immunoblot) was “reduced”. The “growth of myeloma and sarcoma cells and concomitant angiogenesis” value in [9] was “interfere with the growth”. Moreover, the “overall diameter of micromass cultures vs control” value in data set [10] is listed as “reduced the overall diameter”.
